We go through eight compounds from ChEMBL document CHEMBL1201862, “PubChem BioAssay data set” (2004).

Usually GI50 stands for the concentration that inhibits growth by half.

“And” between values parts separate entries of the source, which are not always exact repeats. Equal entries are not always repeated. Structures can show the parent of a compound that is named as a salt.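 A five-concentration, 48-hour dose response in 96-well plates underlies each endpoint, interpolated linearly between surrounding concentrations. The concentration for 50% growth inhibition is given as GI50.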 The source made the active and inactive calls. Cut-off read from the data, not from the text of the source: active = GI50 up to about 1.1 µM and inactive = higher.

Holding throughout (experiment): DTP human tumour cell line panel, 48 h
Assay [1] has as its system 786-0.
In assay [2] the test system is A549.
In assay [3] the test system is CAKI-1.
The subject of assay [4] is HCC 2998.
The subject of assay [5] is HOP-92.
The subject of assay [6] is IGROV-1.
Assay [7] relates to KM12.
Assay [8] concerns LOX IMVI.
The subject of assay [9] is M14.
The test system of assay [10] is MDA-MB-231.
Assay [11] concerns MDA-N.
Assay [12] concerns Malme-3M.
Assay [13] deals with NCI-H226.
Assay [14] has as its system OVCAR-3.
Assay [15] concerns RXF 393.
Assay [16] has as its system SF-268.
For assay [17], the system named is SK-MEL-28.
Assay [18] concerns SK-MEL-2.
Assay [19] has as its system SR.
In assay [20] the test system is SW-620.

`CC[C@@H]1C(=O)OC[C@@H]1Cc1cncn1C` [PILOCARPINE HYDROCHLORIDE]: the GI50 in assay [1], in assay [2], in assay [3], in assay [4], in assay [5] and in assay [6] was > 100 µM (inactive) each time. For the same compound, the GI50 in [7], in [8], in assay [9], in assay [10], in assay [11] and in assay [12] was > 100 µM (inactive) throughout. In addition, the GI50 in assay [13], in assay [14], in [15], in [16], in assay [17] and in assay [18] was > 100 µM (inactive) in each case. Also, the GI50 in [19] and in assay [20] was > 100 µM (inactive) in each case.
For the compound `CCOC(=O)c1c(NC(=O)c2cccs2)sc2c1CCCC2`, the GI50 in assay [1] is 34.8 µM (inactive); in assay [2] it was 55.5 µM (inactive); in [3], 60.4 µM (inactive); in assay [4], > 100 µM (inactive); in [5] it was 43.3 µM (inactive); in [6], 31.3 µM (inactive). For the same compound, the GI50 was > 100 µM (inactive) in assay [7]; > 100 µM (inactive) in [8]; > 100 µM (inactive) in [9]; 24.6 µM (inactive) in [10]; > 100 µM (inactive) in assay [11]; 29 µM (inactive) in assay [12]. The GI50 is > 38.6 µM (inactive) in assay [13]; 46.3 µM (inactive) in [14]; 12.7 µM (inactive) in assay [15]; 28.1 µM (inactive) in [16]; > 100 µM (inactive) in assay [17]; 42 µM (inactive) in assay [18]. The GI50 was > 80.9 µM (inactive) in [19] and > 100 µM (inactive) in assay [20].
For the compound `CCCN(CCC)C(=O)c1c(Cl)c2cccnc2n2c(C)cnc12`, the GI50 was > 100 µM (inactive) in [1]; 48.8 µM (inactive) in assay [2]; 22.9 µM (inactive) in assay [3]; 97.9 µM (inactive) in assay [4]; 73.3 µM (inactive) in [5]; 64.4 µM (inactive) in assay [6]. The GI50 in [7] is 51.1 µM (inactive); in [8], > 100 µM (inactive); in assay [9] it was 61.2 µM (inactive); in assay [10], 31.8 µM (inactive); in [11], 23.6 µM (inactive); in [12], > 100 µM (inactive). The GI50 in [13] is > 100 µM (inactive); in assay [14], 47.9 µM (inactive); in assay [15], 35 µM (inactive); in assay [16], 96.2 µM (inactive); in [17], > 100 µM (inactive); in [19], 32.9 µM (inactive). The GI50 in [20] was 23.2 µM (inactive).
In the case of `NS(=O)(=O)c1ccc(NCc2cnc3ccccc3n2)cc1`, the GI50 in [1], in [2], in assay [3], in assay [4], in [5] and in assay [6] was > 100 µM (inactive) each time. For the same compound, the GI50 in assay [7], in [9], in [10], in assay [11], in [12] and in [13] was > 100 µM (inactive) each time. Further, the GI50 in [14], in assay [15], in assay [16], in assay [17], in [18] and in [19] was > 100 µM (inactive) each time. The GI50 in assay [20] was > 100 µM (inactive).
`O=[N+]([O-])c1ccc2c(c1)Sc1ccccc1N2`: the GI50 was 64.3 µM (inactive) in assay [1]; 8.51 µM (inactive) in assay [2]; > 100 µM (inactive) in assay [3]; > 100 µM (inactive) in [4]; 6.12 µM (inactive) in assay [5]; 17.7 µM (inactive) in assay [6]. The GI50 in assay [7] was > 100 µM (inactive); in assay [8], 41.3 µM (inactive); in assay [10], 46.1 µM (inactive); in assay [11] it was 6.12 µM (inactive); in assay [12], > 100 µM (inactive); in assay [13], > 100 µM (inactive). Further, the GI50 is > 100 µM (inactive) in assay [14]; 37.8 µM (inactive) in [15]; > 100 µM (inactive) in assay [16]; > 100 µM (inactive) in assay [17]; 12 µM (inactive) in [19]; 43.9 µM (inactive) in [20].
With `COC(=O)C1=COC(C)C2CN3CCc4c([nH]c5cc(OC)c(OC)cc45)C3CC12` (stereo not drawn), the GI50 in [1] was > 100 µM (inactive) and 73.8 µM (inactive); in [2], 96.8 µM (inactive) and 49.5 µM (inactive); in assay [3], > 100 µM (inactive); in assay [4] it was 58.2 µM (inactive) and 36.1 µM (inactive); in [5] it was 22 µM (inactive) and 40.8 µM (inactive); in assay [8], > 100 µM (inactive) and 55.5 µM (inactive). For the same compound, the GI50 in [9] was > 100 µM (inactive) and 65.9 µM (inactive); in assay [10], > 100 µM (inactive); in assay [11], 55.7 µM (inactive); in assay [12] it was > 100 µM (inactive); in assay [13], > 100 µM (inactive) and 61.5 µM (inactive); in assay [14], 58.3 µM (inactive). Besides, the GI50 was 15.3 µM (inactive) in [15]; > 100 µM (inactive) and 65 µM (inactive) in [16]; > 100 µM (inactive) in assay [18]; 31 µM (inactive) and 58.6 µM (inactive) in [19].
Regarding `CNC(=O)N1N[C@H](c2ccccc2)[C@@H]1c1ccccc1.OB(O)O`, the GI50 in assay [1] was 32.4 µM (inactive); in assay [2] it was 28.4 µM (inactive); in [3] it was 32.7 µM (inactive); in assay [4], 31 µM (inactive); in [5], 26.3 µM (inactive); in [6], 18.6 µM (inactive). For the same compound, the GI50 in assay [7] was 17 µM (inactive); in assay [8], 18 µM (inactive); in [9], 21.9 µM (inactive); in [10] it was 28.8 µM (inactive); in [11], 28.1 µM (inactive); in assay [12], 19.7 µM (inactive). The GI50 was 16.7 µM (inactive) in assay [13]; 17 µM (inactive) in assay [14]; 14.2 µM (inactive) in assay [15]; 18 µM (inactive) in assay [17]; 15.3 µM (inactive) in assay [18]; 18.4 µM (inactive) in assay [19]. Moreover, the GI50 in assay [20] was 28.4 µM (inactive).
Take `O=Cc1ccc(Oc2c3ccccc3nc3ccccc23)cc1`: the GI50 in assay [1] is 2.32 µM (inactive); in assay [2], 18.8 µM (inactive); in assay [3], 7.05 µM (inactive); in [4] it was 14.8 µM (inactive); in assay [5], 4.74 µM (inactive); in [7], 11.1 µM (inactive). For the same compound, the GI50 in assay [8] is 2.9 µM (inactive); in assay [9], 3.44 µM (inactive); in assay [10], 2.29 µM (inactive); in assay [11] it was 3.51 µM (inactive); in [12], 11.8 µM (inactive); in assay [13], 4.03 µM (inactive). Further, the GI50 in [14] was 10.9 µM (inactive); in assay [15] it was 7.98 µM (inactive); in assay [16] it was 4.5 µM (inactive); in [17], 12.6 µM (inactive); in [19], 0.053 µM (active).
